Molecules are shown by their SMILES.

Experiment [1] has as its target T1, HEK-293 cells transfected with dox-inducible human wild type FGFR3 (Homo sapiens (Human), UniProt P22607). The experiment can be described thus: FGFR3 pFGFR cell assay (ELISA). Format: cell-based. The note with it: HEK-293 dox-inducible FGFR3, 1 hour compound, 100 ng/ml FGF-acidic. Here is the method:
FGFR3 pFGFR Cell Assay: • HEK-293 cells transfected with dox-inducible human wild type FGFR3 (SEQ ID NO: 5) were plated in a collagen or poly-D-lysine coated 96 well flat bottom plates at 4×10^5 cells/well in complete DMEM medium containing 10% FBS and 1 μg/ml doxycycline and allowed to attach for 24 h at 37° C., 5% CO2. Cells were treated with compound using 1:3 serial dilutions with a top final concentration of 5 μM. Compound was incubated on cells for 1 hour at 37° C., 5% CO2. Cells were then stimulated with a final concentration of 100 ng/ml human FGF-acidic for 5 minutes at 37° C., 5% CO2. Medium was removed and cells were lysed with lysis buffer containing phosphatase and protease inhibitors. Phospho FGFR3 was measured by ELISA (R&D Systems cat DYC2719). The ELISA captures total FGFR3 and detects total phospho tyrosine. Optical density was measured for each well using a Versamax reader at a wavelength of 450 nm. 100 POC was determined using no test compounds and 0 POC was determined using a control compound. The POC values were fit to a 4-parameter logistic curve as a function of the concentration of the compound, and the IC50 value is the point where the curve crosses 50 POC.

In experiment [2] the target is phosphorylated FGFR3 (SEQ ID NO: 5, amino acids 449 to 759) (Homo sapiens (Human), UniProt P22607). The experiment can be described thus: FGFR enzyme binding assay (HTRF tracer displacement), FGFR3. The note with it: 5 nM phosphorylated FGFR3, average of multiple determinations if made. In a few lines: (§1)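 Kinase and tracer were incubated with compound for 60 minutes at 22° C. Tracer displacement was then measured by HTRF, and results were expressed as POC with 1 μM control inhibitor defining full displacement.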
Chain of phosphorylated FGFR3 (SEQ ID NO: 5, amino acids 449 to 759) (P22607 449-759): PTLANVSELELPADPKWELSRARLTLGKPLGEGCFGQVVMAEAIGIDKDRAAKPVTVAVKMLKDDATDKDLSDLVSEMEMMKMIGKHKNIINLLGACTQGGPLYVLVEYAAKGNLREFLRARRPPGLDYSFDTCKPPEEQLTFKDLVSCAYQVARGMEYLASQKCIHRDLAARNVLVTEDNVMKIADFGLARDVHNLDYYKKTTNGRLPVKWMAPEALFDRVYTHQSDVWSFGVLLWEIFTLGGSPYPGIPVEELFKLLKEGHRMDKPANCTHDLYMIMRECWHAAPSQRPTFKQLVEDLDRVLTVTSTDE
In general terms: In TR-FRET formats the signal depends on donor and acceptor labels being close together.

Experiment [3] addresses recombinant human FGFR2 cytoplasmic domain (amino acids 403-822) (Homo sapiens (Human), UniProt P21802). The experiment in a line: FGFR2 enzyme activity assay (LanthaScreen TR-FRET). The note with it: 15 μM ATP, 20 min incubation at 22° C., average of multiple determinations if made, read-out: FGFR2 Enz FRET IC50. In kind it is biochemical. The essentials: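 Substrate phosphorylation was read by TR-FRET using Eu-PY20 antibody (60 min, 22 °C) after a 20 min, 22 °C reaction. The reaction used 15 μM ATP, 100 nM fluorescent poly-GT peptide and His-tagged FGFR2 403-822 ([…]) at pH 7.5 with 2% DMSO.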

Experiment [4] has as its target recombinant human FGFR3 (amino acids R397-T806) (Homo sapiens (Human), UniProt P22607). The experiment can be described thus: FGFR3 enzyme activity assay (LanthaScreen TR-FRET). The note with it: 25 μM ATP, 10 min incubation at 22° C., average of multiple determinations if made, read-out: FGFR3 Enz FRET IC50. In kind it is biochemical. In a few lines:
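GST-HIS6-tagged human FGFR3 (R397-T806) was reacted with 100 nM Alexa Fluor 647-Poly-GT substrate and 25 μM ATP plus compound in HEPES/MgCl2/Triton buffer, pH 7.5, 2% DMSO, for 10 min at 22 °C.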

Experiment [5] has as its target FGFR3 (SEQ ID NO: 5, amino acids 449-759) (Homo sapiens (Human), UniProt P22607). The experiment in a line: LC/MS FGFR3 kobs assay (covalent protein modification). Format: binding. The note with it: 500 nM FGFR3, 3 μM compound. The essentials: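 Each time-point sample was quenched in 0.4% formic acid and analyzed by Q-TOF LC/MS. Deconvoluted signals gave percent modified and unmodified protein, normalized to the DMSO control, and the decay of unmodified protein yielded kobs.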

Experiment [6] addresses T1, HEK-293 cells transfected with dox-inducible human wild type FGFR3. The experiment in a line: FGFR3 pERK cell assay. In kind it is cell-based. The note with it: HEK-293 dox-inducible FGFR3, 1 hour compound, 100 ng/ml FGF-acidic; maximum concentration 5 μM. Here is the method: (§2) FGFR3 pERK Cell Assay: • HEK-293 cells transfected with dox-inducible human wild type FGFR3 (SEQ ID NO: 5) were plated in a collagen or poly-D-lysine coated 96 well flat bottom plates at 4×10^5 cells/well in complete DMEM medium containing 10% FBS and 1 μg/ml doxycycline and allowed to attach for 24 h at 37° C., 5% CO2. Cells were treated with compound using 1:3 serial dilutions with a maximum final concentration of 5 μM. Compound was incubated on cells for 1 hour at 37° C., 5% CO2. Cells were then stimulated with a final concentration of 100 ng/ml human FGF-acidic (R&D Systems Cat number 232-FA/CF) for 5 minutes at 37° C., 5% CO2. Medium was removed, and cells were lysed with lysis buffer containing phosphatase and protease inhibitors. Phospho ERK1/2 was measured using the Meso Scale Discovery sandwich assay (Meso Scale Discovery cat. no. K151DWD). The assay captures phospho ERK1/2 and detects with a sulfo-tagged total ERK1/2 antibody. The chemiluminescent signal was read on the Sector Imager Plate reader. 100 POC was determined using no test compounds and 0 POC was determined using a control compound. The POC values were fit to a 4-parameter logistic curve as a function of the concentration of the compound, and the IC50 value is the point where the curve crosses 50 POC.

Experiment [7] has as its target HEK-293 cells transfected with dox-inducible human wild type FGFR1 (Homo sapiens (Human), UniProt P11362). The experiment can be described thus: FGFR1 pERK cell assay. The note with it: HEK-293 dox-inducible FGFR1, 1 hour compound, 100 ng/ml FGF-acidic; maximum concentration 5 μM. In kind it is cell-based. Here is the method: as §2, with “FGFR1” for “FGFR3”, “doxycycline(dox)-inducible” for “dox-inducible”, “1)” for “5)”, “Dulbecco's Modified Eagle Medium (DMEM)” for “DMEM medium”, “compound” for “compounds”

For experiment [8], the target named is recombinant human FGFR1 catalytic domain (amino acids 308-731) (Homo sapiens (Human), UniProt P11362). The experiment in a line: FGFR1 enzyme activity assay (LanthaScreen TR-FRET). In kind it is biochemical. The note with it: 20 min incubation at 22° C., average of multiple determinations if made, read-out: FGFR1 Enz FRET IC50. In a few lines: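 His-tagged FGFR1 kinase domain with 100 nM Alexa Fluor 647-poly-GT peptide and ATP in pH 7.5 HEPES/MgCl2 buffer with 2% DMSO, 20 min at 22 °C. Quenched with EDTA plus 2 nM Eu-PY20 antibody and read after 60 min. IC50 comes from a 4-parameter fit of percent of control.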
Chain of recombinant human FGFR1 catalytic domain (amino acids 308-731) (P11362 other isoform, or with tags, fused parts or gaps): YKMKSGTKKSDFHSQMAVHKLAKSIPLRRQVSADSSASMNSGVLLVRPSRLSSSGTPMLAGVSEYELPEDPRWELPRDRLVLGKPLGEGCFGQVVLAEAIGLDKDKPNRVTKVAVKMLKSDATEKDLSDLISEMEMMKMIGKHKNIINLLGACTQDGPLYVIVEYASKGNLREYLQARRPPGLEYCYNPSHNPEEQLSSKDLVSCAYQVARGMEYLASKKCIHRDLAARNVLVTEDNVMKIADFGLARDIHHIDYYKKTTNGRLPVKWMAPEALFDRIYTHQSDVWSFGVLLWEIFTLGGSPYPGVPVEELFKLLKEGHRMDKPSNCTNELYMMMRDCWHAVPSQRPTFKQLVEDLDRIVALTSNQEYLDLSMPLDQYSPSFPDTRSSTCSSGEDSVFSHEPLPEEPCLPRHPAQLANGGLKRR

The target in experiment [9] is dephosphorylated FGFR1 (SEQ ID NO: 1, amino acids 458 to 765) (Homo sapiens (Human), UniProt P11362). The experiment in a line: FGFR enzyme binding assay (HTRF tracer displacement), FGFR1. The note with it: 5 nM dephosphorylated FGFR1, average of multiple determinations if made. The essentials:
as §1

Chain of recombinant human FGFR3 (amino acids R397-T806) (P22607 397-806): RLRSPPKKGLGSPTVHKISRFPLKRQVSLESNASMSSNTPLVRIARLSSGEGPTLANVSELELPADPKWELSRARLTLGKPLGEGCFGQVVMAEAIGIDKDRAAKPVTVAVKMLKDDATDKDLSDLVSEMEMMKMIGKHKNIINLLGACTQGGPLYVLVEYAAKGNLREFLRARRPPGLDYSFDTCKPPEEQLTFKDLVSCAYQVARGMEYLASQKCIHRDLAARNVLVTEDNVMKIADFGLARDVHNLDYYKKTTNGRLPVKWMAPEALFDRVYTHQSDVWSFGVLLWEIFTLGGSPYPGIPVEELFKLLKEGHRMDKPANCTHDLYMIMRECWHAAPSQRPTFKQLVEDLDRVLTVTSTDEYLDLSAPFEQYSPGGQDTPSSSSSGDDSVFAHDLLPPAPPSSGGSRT
T1 sequence (P22607 23-806): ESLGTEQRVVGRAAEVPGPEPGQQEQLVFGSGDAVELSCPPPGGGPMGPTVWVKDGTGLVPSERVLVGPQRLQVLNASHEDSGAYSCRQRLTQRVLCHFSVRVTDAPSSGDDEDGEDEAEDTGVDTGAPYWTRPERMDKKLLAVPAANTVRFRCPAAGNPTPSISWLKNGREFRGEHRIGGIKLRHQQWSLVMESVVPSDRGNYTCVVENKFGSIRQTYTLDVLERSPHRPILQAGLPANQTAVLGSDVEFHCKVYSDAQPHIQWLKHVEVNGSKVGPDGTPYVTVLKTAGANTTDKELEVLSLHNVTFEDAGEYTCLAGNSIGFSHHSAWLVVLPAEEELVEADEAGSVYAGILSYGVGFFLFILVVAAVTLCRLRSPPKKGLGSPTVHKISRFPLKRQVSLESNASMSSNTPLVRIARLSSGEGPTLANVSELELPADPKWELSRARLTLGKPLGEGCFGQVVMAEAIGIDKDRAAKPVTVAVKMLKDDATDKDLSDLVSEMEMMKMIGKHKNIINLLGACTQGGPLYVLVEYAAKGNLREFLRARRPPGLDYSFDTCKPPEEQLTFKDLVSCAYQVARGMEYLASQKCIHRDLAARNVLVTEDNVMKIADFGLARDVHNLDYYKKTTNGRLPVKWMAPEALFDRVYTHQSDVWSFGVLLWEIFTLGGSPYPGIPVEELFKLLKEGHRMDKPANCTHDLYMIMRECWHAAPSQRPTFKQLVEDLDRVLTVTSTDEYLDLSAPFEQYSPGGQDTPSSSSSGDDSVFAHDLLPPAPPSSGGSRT
Chain of recombinant human FGFR2 cytoplasmic domain (amino acids 403-822) (P21802 402-821): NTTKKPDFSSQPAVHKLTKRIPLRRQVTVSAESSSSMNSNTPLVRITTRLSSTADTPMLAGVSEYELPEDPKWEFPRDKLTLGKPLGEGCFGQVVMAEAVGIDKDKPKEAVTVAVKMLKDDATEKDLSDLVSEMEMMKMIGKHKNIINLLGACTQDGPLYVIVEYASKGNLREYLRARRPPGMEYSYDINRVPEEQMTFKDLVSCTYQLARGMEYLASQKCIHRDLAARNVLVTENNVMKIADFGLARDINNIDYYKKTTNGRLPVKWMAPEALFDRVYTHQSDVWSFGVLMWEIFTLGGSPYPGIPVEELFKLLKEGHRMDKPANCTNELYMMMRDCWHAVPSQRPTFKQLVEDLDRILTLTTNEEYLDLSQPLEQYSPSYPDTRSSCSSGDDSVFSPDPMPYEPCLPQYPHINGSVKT
Chain of FGFR3 (SEQ ID NO: 5, amino acids 449-759) (P22607 449-759): as the sequence (P22607 449-759) above
Chain of dephosphorylated FGFR1 (SEQ ID NO: 1, amino acids 458 to 765) (P11362 458-765): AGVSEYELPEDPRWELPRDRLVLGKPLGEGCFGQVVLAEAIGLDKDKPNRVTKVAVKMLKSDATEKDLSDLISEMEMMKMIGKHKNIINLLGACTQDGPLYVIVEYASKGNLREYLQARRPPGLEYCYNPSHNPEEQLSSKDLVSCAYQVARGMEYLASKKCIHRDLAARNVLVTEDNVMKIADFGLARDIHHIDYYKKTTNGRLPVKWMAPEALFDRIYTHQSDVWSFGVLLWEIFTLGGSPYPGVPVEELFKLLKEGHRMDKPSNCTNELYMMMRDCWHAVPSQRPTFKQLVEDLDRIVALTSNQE
Chain of HEK-293 cells transfected with dox-inducible human wild type FGFR1 (P11362 22-822): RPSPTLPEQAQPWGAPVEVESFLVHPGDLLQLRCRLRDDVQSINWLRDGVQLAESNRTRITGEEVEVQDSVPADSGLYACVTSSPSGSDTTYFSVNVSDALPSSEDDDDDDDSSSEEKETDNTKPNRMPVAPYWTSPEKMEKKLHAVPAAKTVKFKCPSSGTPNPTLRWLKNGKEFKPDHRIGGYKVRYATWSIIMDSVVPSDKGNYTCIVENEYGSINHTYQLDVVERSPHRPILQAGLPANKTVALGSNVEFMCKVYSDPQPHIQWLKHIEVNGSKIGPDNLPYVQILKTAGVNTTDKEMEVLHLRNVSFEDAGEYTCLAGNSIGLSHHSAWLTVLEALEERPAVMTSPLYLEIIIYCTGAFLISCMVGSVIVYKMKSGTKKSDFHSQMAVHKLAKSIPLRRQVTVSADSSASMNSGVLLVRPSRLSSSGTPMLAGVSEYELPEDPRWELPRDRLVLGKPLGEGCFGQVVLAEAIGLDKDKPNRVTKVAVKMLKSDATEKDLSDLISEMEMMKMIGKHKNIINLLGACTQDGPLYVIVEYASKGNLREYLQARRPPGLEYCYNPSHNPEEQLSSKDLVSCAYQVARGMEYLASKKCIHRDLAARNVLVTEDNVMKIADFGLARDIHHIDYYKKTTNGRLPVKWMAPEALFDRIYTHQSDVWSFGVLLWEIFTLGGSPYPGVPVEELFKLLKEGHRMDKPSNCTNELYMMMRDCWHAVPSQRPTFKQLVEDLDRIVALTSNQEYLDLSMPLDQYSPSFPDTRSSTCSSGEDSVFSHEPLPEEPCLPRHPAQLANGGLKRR

A word on the IC50: it is the concentration needed to halve the response being measured. With `C=CC(=O)N1CCC(C(=O)N2CCC(n3cc(-c4cc(OC)c5c(C#N)cnn5c4)cn3)CC2)CC1` [Example 12, 6-(1-(1-(1-acryloylpiperidine-4-carbonyl)piperidin-4-yl)-1H-pyrazol-4-yl)-4-methoxypyrazolo[1,5-a]pyridine-3-carbonitrile], the IC50 in [1] is 242 nM; in experiment [2] it was 32 nM; in experiment [3], 3 nM; in experiment [4], 3 nM. Further, the “FGFR3 Enz kobs” value in experiment [5] stood at 0.00231 min⁻¹.
On to `C=CC(=O)Nc1ccc(S(=O)(=O)N2CCC(n3cc(-c4cc(OC)c5c(C#N)cnn5c4)cn3)CC2)cc1` [Example 49, N-(4-((4-(4-(3-cyano-4-methoxypyrazolo[1,5-a]pyridin-6-yl)-1H-pyrazol-1-yl)piperidin-1-yl)sulfonyl)phenyl)acryl-amide (2,2,2-trifluoroacetate)], for which, in [1], half-maximal inhibition (IC50) required 20 nM.
In the case of `C=C(F)C(=O)N1CC(C(=O)N2CCC(n3cc(-c4cc(OC)c5c(C#N)cnn5c4)cn3)CC2)C1` [Example 140, 6-(1-(1-(1-(2-fluoroacryloyl)azet-idine-3-carbonyl)piperidin-4-yl)-1H-pyrazol-4-yl)-4-methoxypyrazolo [1,5-a]pyridine-3-carbonitrile], the values for the IC50 in experiment [6] and in experiment [7] were 105 nM and 206 nM, respectively.
On to `COc1cc(-c2cnn(C3CN(CC4CN(C(=O)/C=C/CN(C)C)C4)C3)c2)cn2ncc(C#N)c12` [Example 148], for which the IC50 in experiment [1] stood at 351 nM.
Take `COc1cc(-c2cnn(C3CN(C(=O)C4CN(C(=O)/C=C/CN(C)C)C4)C3)c2)cn2ncc(C#N)c12` [Example 150]: the half-inhibitory concentration (IC50) in [1] came to 2320 nM.
Regarding `C=CS(=O)(=O)N1CC[C@@H](C(=O)N2CCC(n3cc(-c4cc(OC)c5c(C#N)cnn5c4)cn3)CC2)C1` [Example 185], the IC50 in experiment [1] amounted to 12 nM; in experiment [2], 4 nM; in experiment [3], 5 nM; in [4], 3 nM. Also, the “FGFR3 Enz kobs” value in experiment [5] worked out at 0.06081 min⁻¹.
Turning to `C=CS(=O)(=O)N[C@H]1CC[C@H](C(=O)N2CCC(n3cc(-c4cc(OC)c5c(C#N)cnn5c4)cn3)CC2)CC1` [Example 187, N-((1r,4r)-4-(4-(4-(3-cyano-4-methoxypyrazolo[1,5-a]pyridin-6-yl)-1H-pyrazol-1-yl)piperidine-1-carbonyl)cyclohexyl) ethenesulfonamide], it took 74 nM to reach half-maximal inhibition in experiment [1] (IC50).
On to `C=CS(=O)(=O)N1CC[C@H](C(=O)N2CCC(n3cc(-c4cc(OC)c5c(C#N)cnn5c4)cn3)CC2)C1` [Example 189, (S)-4-methoxy-6-(1-(1-(1-(vinylsulfonyl)pyrrol-idine-3-carbonyl)piperidin-4-yl)-1H-pyrazol-4-yl)pyrazolo[1,5-a]pyridine-3-carbonitrile], for which the half-inhibitory concentration (IC50) in [1] was found to be 9 nM; in experiment [2] it was 3 nM; in [3], 3 nM; in experiment [4] it was 4 nM. Further, the “FGFR3 Enz kobs” value in [5] turned out to be 0.0728 min⁻¹.
Turning to `C=CS(=O)(=O)N1CC(C(=O)N2CCC(n3cc(-c4cc(OC)c5c(C#N)cnn5c4)cn3)CC2)C1` [Example 192, 4-methoxy-6-(1-(1-(1-(vinylsulfonyl)azetidine-3-carbonyl)piperidin-4-yl)-1H-pyrazol-4-yl)pyrazolo[1,5-a]pyridine-3-carbonitrile], the IC50 in experiment [1] is 12 nM; in [2], 12 nM; in experiment [8], 14 nM; in experiment [3], 9 nM; in experiment [9], 70 nM; in experiment [4] it was 3 nM. Further, the “FGFR3 Enz kobs” value in [5] amounted to 0.1008 min⁻¹.
For the compound `C=CS(=O)(=O)N1CCC2(CC1)CC(C(=O)N1CCC(n3cc(-c4cc(OC)c5c(C#N)cnn5c4)cn3)CC1)C2` [Example 195, 4-methoxy-6-(1-(1-(7-(vinylsulfonyl)-7-azaspiro[3.5]nonane-2-carbonyl)piperidin-4-yl)-1H-pyrazol-4-yl)pyrazolo[1,5-a]pyridine-3-carbonitrile], the IC50 in experiment [1] came to 14 nM; in [2], 4 nM; in [8], 19 nM; in [3], 7 nM; in [9], 50 nM; in experiment [4], 5 nM. In addition, the “FGFR3 Enz kobs” value in experiment [5] worked out at 0.02572 min⁻¹.
In [1], `C=CS(=O)(=O)Nc1ccc(C(=O)N2CCC(n3cc(-c4cc(OC)c5c(C#N)cnn5c4)cn3)CC2)cc1` [Example 196, N-(4-(4-(4-(3-cyano-4-methoxypyrazolo[1,5-a]pyridin-6-yl)-1H-pyrazol-1-yl)piperidine-1-carbonyl)phenyl)ethenesulfonamide] registered a concentration for half-maximal inhibition (IC50) of 26 nM.

For the origin of these results see patent US12180207B2 (ARRAY BIOPHARMA INC., priority 2018, dated 2024).
